Legend:
[1] = test system: cell culture cells, transfected with MNK2 (MNK2a or MNK2b) or MNK1; conditions: addition to cell culture cells transfected with MNK2 (MNK2a or MNK2b) or MNK1; cited from earlier work
[2] = target: MNK2a (Homo sapiens (Human), UniProt Q9HBH9); experiment: MNK2a in vitro kinase assay (Assay 2), ADP-Glo; format: biochemical; conditions: read-out: MNK2 IC50
Procedure: The white, 384-well OptiPlate F plates were purchased from PerkinElmer. The ADP-Glo Kinase Assay (including ultra pure ATP) was purchased from Promega (V9103). Activated MNK2a was obtained as described in WO2011/104340. […] All other materials were of highest grade commercially available. Compounds are tested in either serial dilutions or single dose concentrations. The compound stock solutions are 10 mM in 100% DMSO The serial compound dilutions are prepared in 100% DMSO followed by 1:27.3 intermediate dilution in assay buffer. The final DMSO concentration in assay will be <3%.
In the 384-well plates 3 μl of test compound from the intermediate dilution is mixed with 4 μl of the activated MNK2 enzyme (final concentration of 10 nM) and 4 μl of the peptide (final concentration of 25 μM)/ultra pure ATP (final concentration of 20 μM), all dissolved in assay buffer. This step is followed by an incubation time of 90 min, then 10 μl of ADP Glo reagent are added, followed by 40 min of incubation. Then 20 μl of kinase detection reagent are admixed. The plates are sealed and after an incubation period of 30 min, the luminescence signal is measured in an Envision reader to determine the amount of produced ADP. All incubation steps are performed at room temperature. […]
IC50 values based on dose response curves are calculated with the AssayExplorer software.

[3] = target: MNK1a (Homo sapiens (Human), UniProt Q9BUB5); experiment: MNK1 in vitro kinase assay (Assay 3), Z'-LYTE; format: biochemical; conditions: compound concentration of 1 μM
Chain of MNK1a (Q9BUB5 other isoform, or with tags, fused parts or gaps): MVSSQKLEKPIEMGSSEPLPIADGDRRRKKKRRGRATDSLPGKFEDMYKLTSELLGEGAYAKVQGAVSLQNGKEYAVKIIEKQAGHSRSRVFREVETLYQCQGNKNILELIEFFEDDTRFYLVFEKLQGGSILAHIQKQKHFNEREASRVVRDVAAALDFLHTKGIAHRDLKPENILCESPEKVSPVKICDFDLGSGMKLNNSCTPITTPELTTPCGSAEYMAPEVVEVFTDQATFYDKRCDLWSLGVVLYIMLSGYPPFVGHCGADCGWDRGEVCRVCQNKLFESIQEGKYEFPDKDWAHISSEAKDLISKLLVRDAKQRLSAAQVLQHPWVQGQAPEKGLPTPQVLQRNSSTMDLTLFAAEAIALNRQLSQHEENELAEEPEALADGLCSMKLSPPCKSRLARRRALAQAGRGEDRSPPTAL
From the text: C. MNK1 In Vitro Kinase Assay (Assay 3)
MNK1 Data can be obtained from the MNK1 Z′-LYTE® assay. The MNK1 Z′-LYTE® screening protocol and assay conditions are also described on www.invitrogen.com.
The assay is described as follows:
The Z′-LYTE® biochemical assay employs a fluorescence-based, coupled-enzyme format and is based on the differential sensitivity of phosphorylated and non-phosphorylated peptides to proteolytic cleavage. The peptide substrate is labeled with two fluorophores—one at each end—that make up a FRET pair.
In the primary reaction, the kinase transfers the gamma-phosphate of ATP to a single tyrosine, serine or threonine residue in a synthetic FRET-peptide. In the secondary reaction, a site-specific protease recognizes and cleaves non-phosphorylated FRET-peptides. Phosphorylation of FRET-peptides suppresses cleavage by the Development Reagent. […] A ratiometric method, which calculates the ratio (the Emission Ratio) of donor emission to acceptor emission after excitation of the donor fluorophore at 400 nm, is used to quantitate reaction progress, as shown in the equation below.
ASSAY SETUP: The inhibition of kinase activity of MNK1a was assessed using pre-activated GST-MNK1a. […]
9. Read on fluorescence plate reader and analyze the data […]

Chain of MNK2a (Q9HBH9 whole entry): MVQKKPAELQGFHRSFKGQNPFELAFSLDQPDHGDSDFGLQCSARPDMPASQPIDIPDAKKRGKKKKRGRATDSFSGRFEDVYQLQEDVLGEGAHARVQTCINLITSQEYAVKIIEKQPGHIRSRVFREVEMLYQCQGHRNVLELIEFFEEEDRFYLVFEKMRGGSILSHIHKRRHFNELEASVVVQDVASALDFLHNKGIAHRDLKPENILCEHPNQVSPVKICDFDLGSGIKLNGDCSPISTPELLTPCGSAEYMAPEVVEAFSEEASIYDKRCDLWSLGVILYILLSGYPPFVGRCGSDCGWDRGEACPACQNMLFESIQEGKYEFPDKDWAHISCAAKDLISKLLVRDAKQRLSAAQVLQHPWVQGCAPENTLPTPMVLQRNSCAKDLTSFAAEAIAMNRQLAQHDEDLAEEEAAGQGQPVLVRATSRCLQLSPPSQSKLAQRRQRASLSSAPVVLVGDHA

Compound: Nc1ncnc2n[nH]c(Nc3ccc(F)cc3)c12 [CGP57380]
- reduction of phosphorylated eIF4E [1]: strong reduction of phosphorylated eIF4E

Compound: C[C@@H](Oc1cc(F)ccc1Nc1ncnc2cc(N=S3(=O)CCC3)cc(F)c12)C(=O)NCCC(F)(F)F [Example 4.108]
- IC50 [2]: 2 nM

Compound: C[C@H](NC(=O)[C@@H](C)Oc1cc(F)ccc1Nc1ncnc2cc(N=S3(=O)CCC3)cc(F)c12)C(F)(F)F [Example 4.136]
- MNK1 % INH [3]: 93%

Reference: US9708274B2, “Sulfoximine substituted quinazolines for pharmaceutical compositions” (EVOTEC INTERNATIONAL GMBH, priority 2013, dated 2017)
